Results from US7378232B2 (priority 2002, dated 2008).
Like-named read-outs stand apart in the source and are kept apart here.

Experiments:
Type in all cases: cell-based
[1] = tested on: wild-type melan-a melanocytes (A) and P-null melanocytes (P)
[2] = tested on: yeast cells expressing / not expressing the P protein (strain SH3866)
[3] = tested on: P protein-expressing yeast cells and control yeast cells; experiment: Selenite exposure of yeast: colony size and red precipitate formation; conditions: 10-50 mM selenite in agar, 30° C. for 3 days, FIG. 3B
Description: In another experiment, P protein-expressing yeast cells and control yeast cells were exposed to various concentrations of selenite. The toxic affect of selenite in yeast is believed to be due to DNA damage. The major mode of selenite detoxification appears to be its reduction by glutathione to elementary selenium that accumulates as a red precipitate in the cell vacuole (Pinson et al. Molecular Microbiology 36:679-687(2000)).
10 mM, 20 mM, 30 mM, 40 mM, and 50 mM selenite solutions were prepared in 55° C. selective medium-agar and plated in duplicate into 24-well plates. Actively growing yeast cultures were diluted to A600 values of 0.001, and then 10 μl aliquots were spotted in duplicate onto the selenite-containing agar medium. Plates were incubated at 30° C. for 3 days. […]

[4] = tested on: yeast cells expressing the P protein; experiment: Nigericin effect on yeast cell viability, P protein-expressing cells; conditions: Saccharomyces cerevisiae, data not shown
[5] = tested on: yeast cells not expressing the P protein; experiment: Nigericin effect on yeast cell viability, cells without P protein; conditions: Saccharomyces cerevisiae, data not shown
[6] = 24-well selective medium-agar, 30° C. for 3 days, FIG. 3A

Compound	TOXIN S[…] (as a function of P protein expression) [1]	further results
COc1cc(NC(C)CCCN)c2ncccc2c1 (stereo not shown) [PRIMAQUINE, primaquine]		TOXIN S[…] CHANGE (as a function of P protein expression) [1]: ✓
C[C@@H]1[C@H](O)[C@@H](C)/C=C/C=C/C=C/C=C/C=C/C=C/C=C/[C@H](O[C@@H]2O[C@H](C)[C@@H](O)[C@H](N)[C@@H]2O)C[C@@H]2O[C@](O)(C[C@@H](O)C[C@@H](O)[C@H](O)CC[C@@H](O)C[C@@H](O)CC(=O)O[C@H]1C)C[C@H](O)[C@H]2C(=O)O [AMPHOTERICIN, amphotericin]		TOXIN S[…] CHANGE (as a function of P protein expression) [1]: ✓
[Sb] [ANTIMONY, antimony]	✓	yeast colony size, P protein-expressing vs non-expressing colonies exposed to the compound [2]: do not reach the same size
CCCCS(=N)(=O)CCC(N)C(=O)O (stereo not shown) [BUTHIONINE SULFOXIMINE (BSO), buthionine sulfoximine]	✓	
O=[Se](O)O [selenite]		red precipitate accumulation in P-expressing cells vs control cells [3]: accumulate more red precipitate; selenite sensitivity, cells expressing a P protein versus control cells [3]: no difference
CC[C@]1(O)C[C@@H]2CN(CCc3c([nH]c4ccccc34)[C@@](C(=O)OC)(c3cc4c(cc3OC)N(C)[C@H]3[C@@](O)(C(=O)OC)[C@H](OC(C)=O)[C@]5(CC)C=CCN6CC[C@]43[C@@H]65)C2)C1 [VINBLASTINE, vinblastine]	✓	
CCN(CC)CCCC(C)Nc1ccnc2cc(Cl)ccc12 (stereo not shown) [CHLOROQUINE, chloroquine]	✓	
N#CC(C#N)=NNc1ccc(OC(F)(F)F)cc1 [FCCP, carbonyl cyanide p-trifluoromethoxyphenylhydrazone]	✓	
CC(C)[C@@H]1NC(=O)[C@H](C)OC(=O)[C@@H](C(C)C)NC(=O)[C@@H](C(C)C)OC(=O)[C@H](C(C)C)NC(=O)[C@H](C)OC(=O)[C@@H](C(C)C)NC(=O)[C@@H](C(C)C)OC(=O)[C@H](C(C)C)NC(=O)[C@H](C)OC(=O)[C@@H](C(C)C)NC(=O)[C@@H](C(C)C)OC1=O [VALINOMYCIN, valinomycin]	✓	
COc1cccc2c1C(=O)c1c(O)c3c(c(O)c1C2=O)C[C@@](O)(C(=O)CO)C[C@@H]3O[C@H]1C[C@H](N)[C@H](O)[C@H](C)O1 [DOXORUBICIN, doxorubicin]	✓	
O=S(=O)([O-])[O-].[Fe+2] [IRON SULFATE (FESO4), iron sulfate (FeSO4)]	✓	
CC[C@H]1/C=C/C=C/C[C@@H](C)[C@H](O)[C@@](C)(O)C(=O)[C@@H](C)[C@H](O)[C@@H](C)C(=O)[C@@H](C)[C@H](O)[C@@H](C)/C=C/C(=O)O[C@@H]2[C@H](C)[C@H](CC1)O[C@]1(CC[C@H](C)[C@H](C[C@@H](C)O)O1)[C@H]2C [OLIGOMYCIN, oligomycin]	✓	
N.N.[Cl][Pt][Cl] [CISPLATIN, cisplatin]	✓	
arsenate	✓	yeast colony size, P protein-expressing vs non-expressing colonies exposed to the compound [2, 6]: do not reach the same size
C[C@@H]1C[C@@H]([C@H](O)CC2CC(=O)NC(=O)C2)C(=O)[C@@H](C)C1 [CYCLOHEXIMIDE, cycloheximide]	✓	
[Cd] [CADMIUM, cadmium]	✓	
O=[Se](=O)(O)O [SELENATE, selenate]	✓	
arsenic trioxide	✓	yeast colony size, P protein-expressing vs non-expressing colonies exposed to the compound [2, 6]: do not reach the same size
CO[C@@H]1C[C@@H](C[C@H]2CC[C@H](C)[C@H]([C@@H](C)C(=O)O)O2)O[C@]2(O[C@](C)([C@H]3CC[C@@](C)([C@@H]4O[C@@H]([C@H]5O[C@@](O)(CO)[C@H](C)C[C@@H]5C)C[C@@H]4C)O3)C[C@H]2C)[C@@H]1C [nigericin]		IC50 [4]: 3 µM; IC50 [5]: 25 µM
C=CCC(N)C(=O)O (stereo not shown) [ALLYLGLYCINE, allylglycine]		TOXIN S[…] CHANGE (as a function of P protein expression) [1]: ✓
arsenite	✓	
C=C(CC)C(=O)c1ccc(OCC(=O)O)c(Cl)c1Cl [ETHACRYNIC ACID, ethacrynic acid]	✓	
CO/C1=C\C(C)=C\[C@@H](C)[C@@H](O)[C@@H](C)C/C(C)=C/C=C/[C@H](OC)[C@@H]([C@@H](C)[C@@H](O)[C@H](C)[C@@]2(O)C[C@@H](O)[C@H](C)[C@@H](C(C)C)O2)OC1=O [BAFILOMYCIN Al, bafilomycin A1]	✓	
